Structures can show the parent of a compound that is named as a salt. Where two headings read alike, the source gives them in different places.
Assays:
[1] = test system: IL-6 release from RAW264.7 cells; experiment: LPS-stimulated IL-6 release from RAW264.7 cells (ELISA); assay type: cell-based, mouse; conditions: 2 h pretreatment, 1 μg/mL LPS 20-24 h, read-out: RAW 264.7 IL-6 release EC50
Procedure: (§1) RAW 264.7 cells were seeded at 4×10^4 cells per well n complete growth medium in 96 well white TC plates with clear bottoms one day prior to the assay. The next day the cells were washed once and 100 μL fresh growth media was added. Cells were pretreated with 0.5 μL from a 6 point 200× dilution series of the test compounds in DMSO for 2 hours. Following pretreatment with the drugs, the inflammatory response was induced by adding 5 μL of a 20 μg/mL solution of LPS (Sigma). The cells were incubated in the presence of the drugs and 1 μg/mL LPS for another 20-24 hours. Typically after treatment the total DMSO was […] of the culture volume and the final concentrations of the compounds were approximately: 40, 20, 10, 1, 0.2 and 0 μM depending on the MW of each compound. Modified dilution series were prepared as needed to get adequate dose response curves without changing the % DMSO. Samples were run in duplicate or triplicate and included DMSO treated control wells with and without LPS stimulation. Drugs with a known activity such as Parthenolide or DHMEQ were run as experimental controls. After 20-24 hours LPS activation, the media supernatant was collected from the cells and replaced with fresh media. The supernatant samples were cleared by centrifugation at 1,000×g for 5 minutes, transferred to fresh storage plates, and stored frozen at −30° C.
After determining the appropriate supernatant dilutions experimentally, mIL-6 levels in the supernatants were quantified using Quantikine™ mouse IL-6 immunoassay (R&D Systems) according to the manufacturer's protocol. […] diluted in Calibrator Diluent were added to 50 μL of Assay Diluent in microplate wells pre-coated with an anti-mouse IL-6 capture antibody. Controls included a calibrated positive IL-6 control sample, non-specific binding (NSB) wells containing Calibrator Diluent but no IL-6, and a recombinant mouse IL-6 standard dilution series (10-1000 pg/mL). The plates were incubated at room temperature for 2 hours with shaking and then washed 5 times with 400 μL 1× Wash Buffer. […] anti-mouse IL-6 antibody was added to each well to detect IL-6 captured on the plate. The plates were incubated at room temperature for 2 hours and then washed 5 times with 400 μL 1× Wash Buffer. Equal volumes of Color Reagents A and B were mixed and 100 μL of this HRP Substrate Solution was added to each well on the plate. The blue color was allowed to develop for 30 minutes and then the reaction was stopped using 100 μL of Stop Solution yielding a yellow color. Absorbance at 450 nm with a reference wavelength subtracted at 595 nm was recorded using a Becton-Dickinson DTX 880 Multimode Detector.
(§2) The concentration of mIL-6 in the unknown samples was determined from a curve-fit of the mIL-6 standard absorbance data and multiplying by the dilution factor. The maximum activity achieved in the absence of the inhibitor (DMSO+LPS treated wells) was arbitrarily given a value of 100%; likewise the minimum activity in the absence of the stimulant (no LPS) was assigned a value of 0%. Inhibition of the amount of mIL-6 cytokine released in the drug treated wells was calculated relative to the maximum activation in the DMSO+LPS treated control wells (ie. % inhibition=100−(drug+LPS treated)/(DMSO+LPS treated)). Dose response curves were used to determine the effective concentration to inhibit 50% of the mIL-6 cytokine released (IC50) by means of a SigmaPlot macro which fits a sigmoidal dose-response curve to the (log 10) μM concentration versus % inhibition. […] This technique yields an objective value for the IC50 provided that 50% inhibition was approached at the concentrations tested. FIG. 5 illustrates the effect of the compound of Example 10 on inhibiting IL-6 release.

[2] = test system: PGE2 release from RAW264.7 cells; experiment: LPS-stimulated PGE2 release from RAW264.7 cells (immunoassay); assay type: cell-based; conditions: Mus musculus, 2 h pretreatment, 1 μg/mL LPS 20-24 h, read-out: RAW 264.7 PGE2 release EC50
Procedure: as §1
After determining the appropriate supernatant dilutions experimentally, PGE2 levels in the supernatants were quantified using Parameter™ PGE2 Immunoassay (R&D Systems) according to the manufacturer's protocol. 100 µL of the supernatants diluted in Calibrator Diluent and 50 μL of a primary monoclonal anti-PGE2 antibody were added to the microplate wells pre-coated with a goat anti-mouse Ig capture antibody. Then 50 μL of an HRP conjugated PGE2 competitor was added. Controls included non-specific binding (NSB) wells containing Calibrator Diluent but no primary antibody and a recombinant PGE2 standard dilution series (40-5000 pg/mL). The plates were incubated at room temperature for 2 hours with shaking and then washed 5 times with 400 μL 1× Wash Buffer. Equal volumes of Color Reagents A and B were mixed and 200 μL of this HRP Substrate Solution was added to each well on the plate. The blue color was allowed to develop for 30 minutes and then the reaction was stopped using 50 μL of Stop Solution yielding a yellow color. Absorbance at 450 nm with a reference at 595 nm was recorded using a […] DTX 880 Multimode Detector.
as §2, with “PGE2” for “mIL-6”, “LPS treated wells)” for “LPS)”, “PGE2” for “mIL-6 cytokine”, “(i.e.,” for “(ie.”, “versus” for “versus %”, “tested.” for “tested. FIG. 5 illustrates the effect of the compound of Example 10 on inhibiting IL-6 release.”

[3] = test system: U266B1 multiple myeloma cells; experiment: Multiple myeloma growth inhibition (CellTiter-Glo), U266B1; assay type: cell-based; conditions: 48 hours, FIG. 7
Procedure: (§3) Cryogenically stored RPMI 8226 and U266B1 cells (ATCC, Manassas, Va.) were thawed and cultured according to the vendor's recommendations. Cells were plated in 96-well white-wall tissue culture plates at a concentration of 2×10^5 cells/ml (0.1 ml per well) and incubated overnight at 37° C. in a humidified 5% CO2 atmosphere. Compounds were added to each well at the indicated concentrations (0.5 μl of 200×DMSO stock) and incubated with the cells for 48 hours. Cell viability was detected by adding 100 μl CellTiter-Glo Reagent (Promega, Madison, Wis.) to each well, mixing with pipette, and incubating at room temperature for 10 minutes. Luminescence was read with a DTX 880 Multimode Detector (Beckman Coulter, Fullerton, Calif.). Data was analyzed with SigmaPlot 11 (Systat Software, San Jose, Calif.) software.

[4] = test system: RPMI8226 multiple myeloma cells; experiment: Multiple myeloma growth inhibition (CellTiter-Glo), RPMI 8226; assay type: cell-based; conditions: 48 hours, FIG. 6
Procedure: as §3

[5] = Mus musculus, RAW264.7, RAW264.7 cells

| EC50 [1, 5] | EC50 [2] | Compound | further results |
| --- | --- | --- | --- |
| 240 nM |  | COc1cc(N(C)C)ccc1C(=O)NC1=CC(=O)C2OC2C1O (racemic) [Example 20, (±)-4-(dimethylamino)-N-(2-hydroxy-5-oxo-7-oxabicyclo[4.1.0]hept-3-en-3-yl)-2-methoxybenzamide] |  |
| 220 nM |  | O=C(NC1=CC(=O)C2OC2C1O)c1cc2cc(Br)ccc2cc1O (racemic) [Example 15, (±)-7-bromo-3-hydroxy-N-(2-hydroxy-5-oxo-7-oxabicyclo[4.1.0]hept-3-en-3-yl)-2-naphthamide] |  |
| 850 nM |  | COc1ccc2cc(O)c(C(=O)NC3=CC(=O)C4OC4C3O)cc2c1 (racemic) [Example 11, (±)-3-hydroxy-N-(2-hydroxy-5-oxo-7-oxabicyclo[4.1.0]hept-3-en-3-yl)-7-methoxy-2-naphthamide] |  |
| 270 nM |  | COc1c(C(=O)NC2=CC(=O)C3OC3C2O)ccc(F)c1F (racemic) [Example 16, (±)-3,4-difluoro-N-(2-hydroxy-5-oxo-7-oxabicyclo[4.1.0]hept-3-en-3-yl)-2-methoxybenzamide] |  |
| 6500 nM |  | O=C(NC1=CC(=O)C2OC2C1O)c1cc(Br)ccc1O (racemic) [Example 9, (±)-5-bromo-2-hydroxy-N-(2-hydroxy-5-oxo-7-oxabicyclo[4.1.0]hept-3-en-3-yl)benzamide] |  |
| 480 nM |  | Cc1ccc(C(C)C)c(C(=O)NC2=CC(=O)C3OC3C2O)c1O (racemic) [Example 17, (±)-2-hydroxy-N-(2-hydroxy-5-oxo-7-oxabicyclo[4.1.0]hept-3-en-3-yl)-6-isopropyl-3-methylbenzamide] |  |
| 440 nM |  | CN(C)c1ccc(C(=O)NC2=CC(=O)C3OC3C2O)c(O)c1 (racemic) [Example 10, (±)-4-(dimethylamino)-2-hydroxy-N-(2-hydroxy-5-oxo-7-oxabicyclo[4.1.0]hept-3-en-3-yl)benzamide] | growth inhibition of U266B1 multiple myeloma cells [3]: growth inhibition; growth inhibition of RPMI8226 multiple myeloma cells [4]: growth inhibition |

The remaining lines, values behind:

| Compound | EC50 [1, 5] | EC50 [2] | further results |
| --- | --- | --- | --- |
| O=C(NC1=CC(=O)C2OC2C1O)c1ccc(C(F)(F)F)cc1O (racemic) [Example 1, 2-hydroxy-N-(2-hydroxy-5-oxo-7-oxabicyclo[4.1.0]hept-3-en-3-yl)-4-(trifluoromethyl)benzamide] | 3100 nM | 13300 nM |  |
| O=C(NC1=CC(=O)C2OC2C1O)c1ccc2ccccc2c1O (racemic) [Example 8, (±)-1-hydroxy-N-(2-hydroxy-5-oxo-7-oxabicyclo[4.1.0]hept-3-en-3-yl)-2-naphthamide] | 300 nM |  |  |
| O=C(NC1=CC(=O)C2OC2C1O)c1ccc(Cl)cc1O (racemic) [Example 2, (±)-4-chloro-2-hydroxy-N-(2-hydroxy-5-oxo-7-oxabicyclo[4.1.0]hept-3-en-3-yl)benzamide] | 1300 nM | 5900 nM |  |
| Cc1cccc(C(=O)NC2=CC(=O)C3OC3C2O)c1O (racemic) [Example 4, (±)-2-hydroxy-N-(2-hydroxy-5-oxo-7-oxabicyclo[4.1.0]hept-3-en-3-yl)-3-methylbenzamide] | 760 nM | 2600 nM |  |
| Cc1ccc(C(=O)NC2=CC(=O)C3OC3C2O)c(O)c1 (racemic) [Example 3, (±)-2-hydroxy-N-(2-hydroxy-5-oxo-7-oxabicyclo[4.1.0]hept-3-en-3-yl)-4-methylbenzamide] | 480 nM | 10000 nM |  |
| COc1ccc(C(=O)NC2=CC(=O)C3OC3C2O)c(O)c1 (racemic) [Example 5, (±)-2-hydroxy-N-(2-hydroxy-5-oxo-7-oxabicyclo[4.1.0]hept-3-en-3-yl)-4-methoxybenzamide] | 420 nM | 5700 nM |  |
| CN(C)c1ccc(C(=O)NC2=CC(=O)C3OC3C2O)c(O)c1 (racemic) [Example 19, (±)-4-(dimethylamino)-2-hydroxy-N-(2-hydroxy-5-oxo-7-oxabicyclo[4.1.0]hept-3-en-3-yl)benzamide trifluoroacetate] |  |  | EC50 ([1]; RAW264.7 cells, trifluoroacetate): 740 nM |
| O=C(NC1=CC(=O)C2OC2C1O)c1cc2ccccc2cc1O (racemic) [Example 7, (±)-3-hydroxy-N-(2-hydroxy-5-oxo-7-oxabicyclo[4.1.0]hept-3-en-3-yl)-2-naphthamide] | 1400 nM | 4600 nM |  |
| O=C(NC1=CC(=O)C2OC2C1O)c1cccc(Cl)c1O (racemic) [Example 6, (±)-3-chloro-2-hydroxy-N-(2-hydroxy-5-oxo-7-oxabicyclo[4.1.0]hept-3-en-3-yl)benzamide] | 2500 nM | 7200 nM |  |
